From patent US20100234238A1, “METHOD FOR PROFILING KINASE INHIBITORS” (Janssen Pharmaceutica N V, priority 2006, published 2010)

System: tyrosine kinase activity in xenograft tumor lysates
Experiment: PAMCHIP96 (140-peptide array) profiling of xenograft tumor lysates in absence or presence of MTKI
Format: biochemical
Conditions: 5 μM
Procedure: 100 mg of frozen tumor or tissue blocks, or sections, are lysed in 1 ml of M-PER buffer (PIERCE) containing phosphatase and protease inhibitors (HALT, PIERCE). The suspension is mixed using a ULTRA-TURRAX blender (IKA werke), and centrifuged twice for 10 minutes at 12 000×g. Supernatant lysates are filtered through a 0.2 micrometer filter (Anotop 0.2 μm anopore filter; Whatmann). Lysates are flash frozen in liquid nitrogen and stored at −80C.
Just prior to the PAMCHIP experiment, total protein content is quantitated in the lysates and lysates are diluted to 1 mg/ml in a total volume of 200 μl, with M-PER phosphatase and protease inhibitors (HALT, PIERCE). 10 μg of total lysate (corresponding to 10 μl) will be used per well on the PAMCHIP96.
To all 200 μl lysates 10 units of benzonase (Novagen) is added and lysates are further incubated for 30 min on ice and next centrifuged for 10 minutes at 12 000×g. The supernatant is then 1:1 diluted with compound or DMSO diluted to the appropriate concentration in water, and lysates are further incubated exactly 60 min on ice. Meanwhile, a PAMCHIP96 tyrosine peptide chip (PAMGENE) is blocked with 2% BSA (filtered through a 0.2 μm anopore filter; Whatmann) using the standard setting of a PAMSTATION96 (PAMGENE).
The composition of the kinase buffer is as follows: 1×ABL buffer (NEB), 0.5 mg/ml BSA (from 10 mg/ml NEB stock), 100 μM ATP (dissolved and diluted in 1×ABL buffer), 5 μg/ml PY20-FITC (ExAlpha Biologicals, azide-free preparation). A twofold concentrated kinase buffer is prepared chilled on ice, DMSO or compound is added as appropriate, and the solution is added 1:1 to the (compound treated) ice cold lysates, and immediately applied to a tyrosine peptide PAMCHIP96. The assay is run on a PAMSTATION96 according to standard procedures: after loading of the plate, solution is pumped once onto the wells, a first exposure is read (150 mSec) and then a kinetic reading program (reading every 5 min for 150 mSec) is run for 60 min. Lysates are run in 6 technical replicates for each condition; replicates are always applied horizontally next to each other to avoid vertical strip effects of the chip.
The data (spot images) are further quantified and linked to the peptide identities using EVOLVE PAMGRID software (PAMGENE). The quantified data are then fit to a curve using CurveFitHT software (PAMGENE) using the Vinip2 curve fitting algorithm, applied on the first 30 min of the assay; the initial velocity is derived at the first kinetic time point read. All subsequent data analyses were done on initial velocities (Vini) using the software packages Omniviz and R (Ihaka, R. and Gentlemen, R. (1996) R: a language for data analysis and graphics. J. Comput. Graph. Stat., 5, 299-314).
After replacing the Vini's lower than 0.1 by 0.1, all Vini's were log 2-transformed to approach normality. […] This test was done for each peptide separately using a mixed model (Littell, R. C., Milliken, G. A., Stroup, W. W., Wolfinger, R. D. 1996. SAS system for mixed models. Cary, N. C.: SAS Institute Inc.) allowing the incorporation of both technical variation (i.e., the variation across replicates) and biological variation (i.e., the variation among the various responding and non-responding cell lines or tumors). Variation between cell lines or tumors in Vini and in treatment effect on Vini was modeled respectively by random intercepts and random compound effects per cell line or tumor, nested in response status. The difference in compound-induced reduction in Vini between responding and non-responding cell lines or tumors was tested through the interaction between compound treatment and response status, both modeled as fixed effects.

COc1cc2ncnc3c2cc1OCCCCCN(C)Cc1ccc(Br)cc1N3 [MTKI, 4,6-ethanediylidenepyrimido[4,5-b][6,1,12]benzoxadiazacyclopentadecine, 17-bromo-8,9,10,11,12,13,14,19-octahydro-20-methoxy-13-methyl-]
ratio of initial velocity of peptide phosphorylation (A431 xenograft tumor lysate, CDK7_157_169_S164): 0.60
ratio of initial velocity of peptide phosphorylation (A431 xenograft tumor lysate, EPHB1_921_933_Y928): 0.39
ratio of initial velocity of peptide phosphorylation (A431 xenograft tumor lysate, FAK1_569_581_Y576/Y577): 0.58
ratio of initial velocity of peptide phosphorylation (A431 xenograft tumor lysate, GSK3B_209_221_Y216): 0.67
ratio of initial velocity of peptide phosphorylation (A431 xenograft tumor lysate, K2C6E_53_65_S59): 0.54
ratio of initial velocity of peptide phosphorylation (A431 xenograft tumor lysate, MBP_259_271_Y261/Y268/S266): 0.60
ratio of initial velocity of peptide phosphorylation (A431 xenograft tumor lysate, MK10_216_228_T221/Y223): 0.60
ratio of initial velocity of peptide phosphorylation (A431 xenograft tumor lysate, NCF1_313_325_S315/S320): 0.66
ratio of initial velocity of peptide phosphorylation (A431 xenograft tumor lysate, NTRK2_699_711_Y702/Y706/Y707): 0.46
ratio of initial velocity of peptide phosphorylation (A431 xenograft tumor lysate, P2AB_297_309_T304/Y307): 0.65
ratio of initial velocity of peptide phosphorylation (A431 xenograft tumor lysate, PGFRB_572_584_Y579/Y581): 0.64
ratio of initial velocity of peptide phosphorylation (A431 xenograft tumor lysate, RAF1_331_343_S337/S338/Y339/Y340): 0.58
ratio of initial velocity of peptide phosphorylation (A431 xenograft tumor lysate, RB_804_816_S807/S811): 0.53
ratio of initial velocity of peptide phosphorylation (A431 xenograft tumor lysate, SYN1_2_14_S9): 0.76
ratio of initial velocity of peptide phosphorylation (A431 xenograft tumor lysate, TYRO3_679_691_Y686): 0.55
ratio of initial velocity of peptide phosphorylation (A431 xenograft tumor lysate, VEGFR2_944_956_Y951): 0.58
ratio of initial velocity of peptide phosphorylation (A431 xenograft tumor lysate, VINC_815_827_Y821): 0.52
ratio of initial velocity of peptide phosphorylation (BT474 xenograft tumor lysate, EPHB1_921_933_Y928): 0.70
ratio of initial velocity of peptide phosphorylation (BT474 xenograft tumor lysate, FAK1_569_581_Y576/Y577): 0.89
ratio of initial velocity of peptide phosphorylation (BT474 xenograft tumor lysate, GSK3B_209_221_Y216): 0.89
ratio of initial velocity of peptide phosphorylation (BT474 xenograft tumor lysate, K2C6E_53_65_S59): 0.80
ratio of initial velocity of peptide phosphorylation (BT474 xenograft tumor lysate, MBP_259_271_Y261/Y268/S266): 0.85
ratio of initial velocity of peptide phosphorylation (BT474 xenograft tumor lysate, MK10_216_228_T221/Y223): 0.83
ratio of initial velocity of peptide phosphorylation (BT474 xenograft tumor lysate, NCF1_313_325_S315/S320): 1.02
ratio of initial velocity of peptide phosphorylation (BT474 xenograft tumor lysate, NTRK2_699_711_Y702/Y706/Y707): 0.77
ratio of initial velocity of peptide phosphorylation (BT474 xenograft tumor lysate, P2AB_297_309_T304/Y307): 0.62
ratio of initial velocity of peptide phosphorylation (BT474 xenograft tumor lysate, PGFRB_572_584_Y579/Y581): 0.75
ratio of initial velocity of peptide phosphorylation (BT474 xenograft tumor lysate, RAF1_331_343_S337/S338/Y339/Y340): 0.94
ratio of initial velocity of peptide phosphorylation (BT474 xenograft tumor lysate, RB_804_816_S807/S811): 0.80
ratio of initial velocity of peptide phosphorylation (BT474 xenograft tumor lysate, SYN1_2_14_S9): 0.96
ratio of initial velocity of peptide phosphorylation (BT474 xenograft tumor lysate, TYRO3_679_691_Y686): 0.84
ratio of initial velocity of peptide phosphorylation (BT474 xenograft tumor lysate, VEGFR2_944_956_Y951): 0.84
ratio of initial velocity of peptide phosphorylation (BT474 xenograft tumor lysate, VINC_815_827_Y821): 0.85
ratio of initial velocity of peptide phosphorylation (DU145 xenograft tumor lysate, CDK7_157_169_S164): 0.96
ratio of initial velocity of peptide phosphorylation (DU145 xenograft tumor lysate, EPHB1_921_933_Y928): 0.81
ratio of initial velocity of peptide phosphorylation (DU145 xenograft tumor lysate, FAK1_569_581_Y576/Y577): 0.72
ratio of initial velocity of peptide phosphorylation (DU145 xenograft tumor lysate, GSK3B_209_221_Y216): 1.07
ratio of initial velocity of peptide phosphorylation (DU145 xenograft tumor lysate, K2C6E_53_65_S59): 0.77
ratio of initial velocity of peptide phosphorylation (DU145 xenograft tumor lysate, MBP_259_271_Y261/Y268/S266): 0.81
ratio of initial velocity of peptide phosphorylation (DU145 xenograft tumor lysate, MK10_216_228_T221/Y223): 0.77
ratio of initial velocity of peptide phosphorylation (DU145 xenograft tumor lysate, NCF1_313_325_S315/S320): 0.97
ratio of initial velocity of peptide phosphorylation (DU145 xenograft tumor lysate, NTRK2_699_711_Y702/Y706/Y707): 0.77
ratio of initial velocity of peptide phosphorylation (DU145 xenograft tumor lysate, P2AB_297_309_T304/Y307): 0.81
ratio of initial velocity of peptide phosphorylation (DU145 xenograft tumor lysate, PGFRB_572_584_Y579/Y581): 0.72
ratio of initial velocity of peptide phosphorylation (DU145 xenograft tumor lysate, RAF1_331_343_S337/S338/Y339/Y340): 0.83
ratio of initial velocity of peptide phosphorylation (DU145 xenograft tumor lysate, RB_804_816_S807/S811): 0.76
ratio of initial velocity of peptide phosphorylation (DU145 xenograft tumor lysate, SYN1_2_14_S9): 0.88
ratio of initial velocity of peptide phosphorylation (DU145 xenograft tumor lysate, TYRO3_679_691_Y686): 0.83
ratio of initial velocity of peptide phosphorylation (DU145 xenograft tumor lysate, VEGFR2_944_956_Y951): 0.95
ratio of initial velocity of peptide phosphorylation (DU145 xenograft tumor lysate, VINC_815_827_Y821): 0.84
